# Test results as given in PMC8537277 (Pharmaceuticals, 2021).
# Read-outs that look alike come from different tables or passages of the source. Where a SMILES comes first, the peptide text is derived from it.
# Assays:
# [1] = test system: A/Parma/24/09 H1N1 oseltamivir-resistant virus; conditions: reference peptides; ref Scala et al. (2017) [14]; read-out: HI Titer (IC50) A/Parma/24/09 H1N1; cited from earlier work
# [2] = test system: A/Parma/24/09 H1N1 oseltamivir-resistant virus
# [3] = A/Parma/24/09 oseltamivir-resistant virus, 1 h
SMILES,IC50 [1] [nM],"IC50 [2, 3] [pM]",also measured
"CC(=O)N[C@@H](CO)C(=O)N[C@@H](CCCCN)C(=O)N[C@@H](Cc1c[nH]cn1)C(=O)N[C@@H](CO)C(N)=O [Peptide 1, Ac-SKHS-NH2] (Ac-SKHS-NH2)",1.5,,
"CC(=O)N[C@@H](CO)C(=O)N[C@@H](CC(C)C)C(=O)N[C@@H](CC(=O)O)C(=O)N[C@@H](CS)C(N)=O [Peptide 2, Ac-SLDC-NH2] (Ac-SLDC-NH2)",6,,
"CC(=O)N[C@@H](CO)C(=O)N[C@@H](C)C(=O)N[C@@H](Cc1c[nH]cn1)C(=O)N[C@@H](CO)C(N)=O [Peptide 4, Ac-SAHS-NH2] (Ac-SAHS-NH2)",,,"IC50 ([2]; read-out: HI Titer (IC50) A/Parma/24/09 H1N1, 50% inhibition of virus-induced hemagglutination, N.D. = not detectable at maximum tested concentration 12.5 × 10^3 nM): 500 pM"
CC(=O)N[C@@H](CO)C(=O)N[C@@H](CCCCN)C(=O)N[C@@H](C)C(=O)N[C@@H](CO)C(N)=O [Peptide 5] (Ac-SKAS-NH2),,2.9,
CC(=O)N[C@@H](CO)C(=O)N[C@@H](C)C(=O)N[C@@H](CC(=O)O)C(=O)N[C@@H](CS)C(N)=O [Peptide 8] (Ac-SADC-NH2),,0.0022,
CC(=O)N[C@@H](CO)C(=O)N[C@@H](CC(C)C)C(=O)N[C@@H](CC(=O)O)C(=O)N[C@@H](C)C(N)=O [Peptide 10] (Ac-SLDA-NH2),,6100,
